Data as given in US20240384250A1, “FIBROBLAST GROWTH FACTOR 23 MODULATING COMPOUNDS” (THE UAB RESEARCH FOUNDATION, priority 2021, published 2024).

Experiments:
FGF2 binding to FGFR1c = target: T1, FGF2 binding to FGFR1c (Homo sapiens, UniProt P11362); assay: Plate-based binding of paracrine FGF to Fc-FGFR1c with heparin and/or sKL; conditions: absence of sKL
T1 construct: a chimeric protein consisting of the FGFR1 ectodomain and the Fc region of a human IgG; purchased R&D Systems 233-FB/CF; 658FR050
T1 sequence (P11362 22-376 limits assumed): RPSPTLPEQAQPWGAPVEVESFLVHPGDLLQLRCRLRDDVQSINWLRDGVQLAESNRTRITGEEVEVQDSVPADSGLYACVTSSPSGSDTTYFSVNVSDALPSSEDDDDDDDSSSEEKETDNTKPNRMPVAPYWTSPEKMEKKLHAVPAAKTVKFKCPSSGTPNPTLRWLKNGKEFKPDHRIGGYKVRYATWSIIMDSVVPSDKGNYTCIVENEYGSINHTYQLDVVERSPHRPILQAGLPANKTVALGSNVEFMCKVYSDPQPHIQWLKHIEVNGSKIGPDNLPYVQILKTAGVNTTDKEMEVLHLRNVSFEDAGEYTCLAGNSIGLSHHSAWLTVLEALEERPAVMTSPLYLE
Experimental: (§1) Proteins were coated on 96-well plates (MaxiSorp; 439454, Thermo Fisher Scientific), and proteins were added to wells in 100 μl of enzyme-linked immunosorbent assay (ELISA) coating buffer (E107, Bethyl Laboratories) with a lid placed overtop and incubated at 4° C. overnight. Plates were washed 5× with 350 μl of assay buffer (50 mM Tris [pH 7.4], 200 mM NaCl, 0.01% Tween 20) on a 50 TS microplate washer (BioTek). Plates were blocked for 1 hour in 200 μl of assay buffer with 0.5% BSA. Plates were washed as before, and proteins were incubated on plates in 100 μl of assay buffer with 0.5% BSA. Proteins or heparin was incubated in orders described in the respective figure legends. Assays using FLAG-tag-based detection were incubated with anti-FLAG coupled to HRP at 1:20,000, and assays using Fc detection were incubated with anti-human Fc coupled to HRP at 1:10,000. Plates were washed as above, and 100 μl of 3,3′,5,5′-tetramethylbenzidine (TMB) substrate (E102, Bethyl Laboratories) was added for 15 to 20 minutes until positive wells developed a dark blue color. Reactions were stopped with ELISA stop solution (E115, Bethyl Laboratories) and analyzed using the Synergy HI plate reader (BioTek) at 450 nm wavelength. […] As a control to remove background absorbance values, wells were coated with an equal amount of BSA to match the amount of protein coated in experimental wells and treated the same as experimental wells. To study the effects of sKL on the binding between paracrine FGFs and FGFRs, plates were run as above except coated with paracrine FGFs. Fc-FGFR1 was preincubated with sKL or vehicle for 60 minutes, and then the combination was added to wells and the assay was run as before.

[1] = test system: phosphorylated ERK in HEK293T cells; assay: ERK phosphorylation in serum-starved HEK293 cells (Western blotting); assay type: cell-based, human; conditions: FGF 1.1 nM for 10 minutes, absence of sKL
Experimental: The sample (20 μl) was loaded onto Mini-PROTEAN TGX Precast Gel 4-20% for experiments with <9 samples (4568094, Bio-Rad) or Criterion TGX Precast Gel 4-20% (5678094, Bio-Rad) for experiments with >9 samples. Gels were run in 1× Tris/Glycine/SDS buffer (1610732, Bio-Rad) at 150 V and stopped when the sample dye reached the end of the gel. Gels were removed and electrotransferred via a semi-dry cassette (1703940, Bio-Rad) in I× Tris/Glycine buffer (1610734, Bio-Rad) with 20% methanol. Gels were transferred onto polyvinylidene diflouride membranes (IPVH00010, Millipore) at 20 V for 1 hour. Membranes were then blocked in 5% dried milk with 0.5% Tween 20 diluted in Tris-buffered saline (TBST; pH 7.5) for 1 hour and probed with antibodies against specific antigens at 1:1000 in TBST with 5% dried milk. Blots were washed 3× for 5 minutes in TBST and probed with HRP-coupled secondary antibodies against specific species at 1:10,000 in TBST with 5% dried milk. Membranes were imaged on the SRX-101A X-ray film developer (Konica Minolta).
To determine the cellular activity of paracrine FGFs, the activation/phosphorylation of ERK in HEK293 cells after treatment was studied. […] Twenty microliters of samples was loaded onto 12% SDS-PAGE gels and analyzed using Western blotting for total and phosphorylated ERK.

FGF23 = target: T2, FGF23 (Homo sapiens, UniProt Q9GZV9); assay: Plate-based binding assay, FGF23 coated, FLAG-sKL detected with anti-FLAG HRP; conditions: 2 mM glucosamine or 12.5 ng/ml tunicamycin for 48 hours
T2 construct: purchased R&D Systems 2604FG025/CF (human) or 2629FG025/CF (mouse)
T2 sequence (Q9GZV9 25-251, species assumed): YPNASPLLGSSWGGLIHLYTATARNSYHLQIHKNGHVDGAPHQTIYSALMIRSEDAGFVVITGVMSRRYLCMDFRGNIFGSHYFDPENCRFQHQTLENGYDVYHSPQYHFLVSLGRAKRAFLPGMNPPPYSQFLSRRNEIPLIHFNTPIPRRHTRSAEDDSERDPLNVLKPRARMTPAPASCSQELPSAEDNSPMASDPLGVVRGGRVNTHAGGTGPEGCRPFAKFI
Experimental: as §1, with “Plates were washed as above, and 100 μl of 3,3′,5,5′-tetramethylbenzidine (TMB) substrate (E102, Bethyl Laboratories) was added for 15 to 20 minutes until positive wells developed a dark blue color.” left out, “To study the effects of sKL on the binding between paracrine FGFs and FGFRs, plates were run as above except coated with paracrine FGFs. Fc-FGFR1 was preincubated with sKL or vehicle for 60 minutes, and then the combination was added to wells and the assay was run as before.” left out

FGFR1c = target: T3, FGFR1c (Homo sapiens, UniProt P11362); assay: Plate-based binding assay, FGFR1c coated, FLAG-sKL detected with anti-FLAG HRP; conditions: 12.5 ng/ml tunicamycin for 48 hours
T3 construct: Fc-coupled FGFR ectodomains were immobilized on protein A/G beads; purchased R&D Systems 658FR050
Experimental: as §1, with “Plates were washed as above, and 100 μl of 3,3′,5,5′-tetramethylbenzidine (TMB) substrate (E102, Bethyl Laboratories) was added for 15 to 20 minutes until positive wells developed a dark blue color.” left out, “To study the effects of sKL on the binding between paracrine FGFs and FGFRs, plates were run as above except coated with paracrine FGFs. Fc-FGFR1 was preincubated with sKL or vehicle for 60 minutes, and then the combination was added to wells and the assay was run as before.” left out

| FGF2 binding to FGFR1c (FGF2 binding to FGFR1c) | Molecule | ERK phosphorylation induced by FGF [1] | FGF23 binding affinity of sKL in media of inhibitor-treated HEK293 cells (FGF23) | FGFR1c binding of sKL in media of inhibitor-treated HEK293 cells (FGFR1c) |
| --- | --- | --- | --- | --- |
| FGFR1c bound FGF2 | FGF2: recombinant human FGF2 from R&D Systems | induced ERK phosphorylation | – | – |
| – | tunicamycin [reference compound] | – | much higher FGF23 binding affinity | did not affect the FGFR1c binding |
| – | N[C@H]1C(O)O[C@H](CO)[C@@H](O)[C@@H]1O (some centres unmarked) [Glucosmine, glucosamine, reference compound] | – | had an effect | – |
